system: Mycobacterium tuberculosis; assay: Antimycobacterial activity against Mycobacterium tuberculosis H37Rv assessed as bacterial growth inhibition by microplate Alamar blue assay; assay type: functional; settings: not given

| Structure (SMILES) | MIC |
| --- | --- |
| O=C(Cc1c[nH]c2ccccc12)N1CCN(C(=O)c2ccccc2)CC1 | > 120 µM |
| O=C(CCc1cn(Cc2cn(Cc3ccc(F)cc3)nn2)c2ccccc12)N1CCN(S(=O)(=O)c2ccc(Cl)cc2)CC1 | 20.1 µM |
| O=C(CCc1cn(Cc2cn(Cc3ccc(F)cc3)nn2)c2ccccc12)N1CCN(S(=O)(=O)c2ccccc2C(F)(F)F)CC1 | 38.2 µM |
| O=C(CCc1cn(Cc2ccc(F)cc2)c2ccccc12)N1CCN(S(=O)(=O)c2ccccc2)CC1 | 49.4 µM |
| O=C(CCc1c[nH]c2ccccc12)N1CCN(S(=O)(=O)c2ccccc2)CC1 | > 120 µM |
| Cc1ccc(S(=O)(=O)N2CCN(C(=O)CCc3cn(Cc4cn(Cc5ccc(F)cc5)nn4)c4ccccc34)CC2)cc1 | 20.8 µM |
| O=C(Cc1c[nH]c2ccccc12)N1CCN(S(=O)(=O)c2ccc(Cl)cc2)CC1 | 59.8 µM |
| Cc1ccc(S(=O)(=O)N2CCN(C(=O)Cc3c[nH]c4ccccc34)CC2)cc1 | > 120 µM |

system: Escherichia coli; assay: Antibacterial activity against Escherichia coli assessed as inhibition zone at 75 ug/ml by diffusion method; assay type: functional; settings: read-out: IZ

| Structure (SMILES) | zone of inhibition at 75 µg/mL |
| --- | --- |
| O=C(Cc1c[nH]c2ccccc12)N1CCN(C(=O)c2ccccc2)CC1 | 12 mm |
| O=C(CCc1cn(Cc2cn(Cc3ccc(F)cc3)nn2)c2ccccc12)N1CCN(S(=O)(=O)c2ccc(Cl)cc2)CC1 | 24 mm |
| O=C(CCc1cn(Cc2cn(Cc3ccc(F)cc3)nn2)c2ccccc12)N1CCN(S(=O)(=O)c2ccccc2C(F)(F)F)CC1 | 20 mm |
| O=C(CCc1cn(Cc2ccc(F)cc2)c2ccccc12)N1CCN(S(=O)(=O)c2ccccc2)CC1 | 14 mm |
| O=C(CCc1c[nH]c2ccccc12)N1CCN(S(=O)(=O)c2ccccc2)CC1 | 15 mm |
| O=C(O)c1cn(C2CC2)c2cc(N3CCNCC3)c(F)cc2c1=O [CIPROFLOXACIN] | 32 mm |
| Cc1ccc(S(=O)(=O)N2CCN(C(=O)CCc3cn(Cc4cn(Cc5ccc(F)cc5)nn4)c4ccccc34)CC2)cc1 | 20 mm |
| O=C(Cc1c[nH]c2ccccc12)N1CCN(S(=O)(=O)c2ccc(Cl)cc2)CC1 | 11 mm |
| Cc1ccc(S(=O)(=O)N2CCN(C(=O)Cc3c[nH]c4ccccc34)CC2)cc1 | 18 mm |

system: Escherichia coli; assay: Antibacterial activity against Escherichia coli assessed as inhibition zone at 50 ug/ml by diffusion method; assay type: functional; settings: read-out: IZ

| Structure (SMILES) | zone of inhibition at 50 µg/mL |
| --- | --- |
| O=C(Cc1c[nH]c2ccccc12)N1CCN(C(=O)c2ccccc2)CC1 | 9 mm |
| O=C(CCc1cn(Cc2cn(Cc3ccc(F)cc3)nn2)c2ccccc12)N1CCN(S(=O)(=O)c2ccc(Cl)cc2)CC1 | 20 mm |
| O=C(CCc1cn(Cc2cn(Cc3ccc(F)cc3)nn2)c2ccccc12)N1CCN(S(=O)(=O)c2ccccc2C(F)(F)F)CC1 | 22 mm |
| O=C(CCc1cn(Cc2ccc(F)cc2)c2ccccc12)N1CCN(S(=O)(=O)c2ccccc2)CC1 | 12 mm |
| O=C(CCc1c[nH]c2ccccc12)N1CCN(S(=O)(=O)c2ccccc2)CC1 | 12 mm |
| O=C(O)c1cn(C2CC2)c2cc(N3CCNCC3)c(F)cc2c1=O [CIPROFLOXACIN] | 27 mm |
| Cc1ccc(S(=O)(=O)N2CCN(C(=O)CCc3cn(Cc4cn(Cc5ccc(F)cc5)nn4)c4ccccc34)CC2)cc1 | 20 mm |
| O=C(Cc1c[nH]c2ccccc12)N1CCN(S(=O)(=O)c2ccc(Cl)cc2)CC1 | 9 mm |
| Cc1ccc(S(=O)(=O)N2CCN(C(=O)Cc3c[nH]c4ccccc34)CC2)cc1 | 15 mm |

system: Escherichia coli; assay: Antibacterial activity against Escherichia coli assessed as inhibition zone at 25 ug/ml by diffusion method; assay type: functional; settings: read-out: IZ

| Structure (SMILES) | zone of inhibition at 25 µg/mL |
| --- | --- |
| O=C(Cc1c[nH]c2ccccc12)N1CCN(C(=O)c2ccccc2)CC1 | 6 mm |
| O=C(CCc1cn(Cc2cn(Cc3ccc(F)cc3)nn2)c2ccccc12)N1CCN(S(=O)(=O)c2ccc(Cl)cc2)CC1 | 15 mm |
| O=C(CCc1cn(Cc2cn(Cc3ccc(F)cc3)nn2)c2ccccc12)N1CCN(S(=O)(=O)c2ccccc2C(F)(F)F)CC1 | 15 mm |
| O=C(CCc1c[nH]c2ccccc12)N1CCN(S(=O)(=O)c2ccccc2)CC1 | 10 mm |
| Cc1ccc(S(=O)(=O)N2CCN(C(=O)CCc3cn(Cc4cn(Cc5ccc(F)cc5)nn4)c4ccccc34)CC2)cc1 | 15 mm |
| O=C(Cc1c[nH]c2ccccc12)N1CCN(S(=O)(=O)c2ccc(Cl)cc2)CC1 | 6 mm |
| Cc1ccc(S(=O)(=O)N2CCN(C(=O)Cc3c[nH]c4ccccc34)CC2)cc1 | 12 mm |

system: Staphylococcus aureus; assay: Antibacterial activity against Staphylococcus aureus assessed as inhibition zone at 75 ug/ml by diffusion method; assay type: functional; settings: read-out: IZ

| Structure (SMILES) | zone of inhibition at 75 µg/mL |
| --- | --- |
| O=C(Cc1c[nH]c2ccccc12)N1CCN(C(=O)c2ccccc2)CC1 | 15 mm |
| O=C(CCc1cn(Cc2cn(Cc3ccc(F)cc3)nn2)c2ccccc12)N1CCN(S(=O)(=O)c2ccc(Cl)cc2)CC1 | 20 mm |
| O=C(CCc1cn(Cc2cn(Cc3ccc(F)cc3)nn2)c2ccccc12)N1CCN(S(=O)(=O)c2ccccc2C(F)(F)F)CC1 | 20 mm |
| O=C(CCc1cn(Cc2ccc(F)cc2)c2ccccc12)N1CCN(S(=O)(=O)c2ccccc2)CC1 | 20 mm |
| O=C(CCc1c[nH]c2ccccc12)N1CCN(S(=O)(=O)c2ccccc2)CC1 | 20 mm |
| O=C(O)c1cn(C2CC2)c2cc(N3CCNCC3)c(F)cc2c1=O [CIPROFLOXACIN] | 26 mm |
| Cc1ccc(S(=O)(=O)N2CCN(C(=O)CCc3cn(Cc4cn(Cc5ccc(F)cc5)nn4)c4ccccc34)CC2)cc1 | 20 mm |
| O=C(Cc1c[nH]c2ccccc12)N1CCN(S(=O)(=O)c2ccc(Cl)cc2)CC1 | 15 mm |
| Cc1ccc(S(=O)(=O)N2CCN(C(=O)Cc3c[nH]c4ccccc34)CC2)cc1 | 15 mm |

system: Staphylococcus aureus; assay: Antibacterial activity against Staphylococcus aureus assessed as inhibition zone at 50 ug/ml by diffusion method; assay type: functional; settings: read-out: IZ

| Structure (SMILES) | zone of inhibition at 50 µg/mL |
| --- | --- |
| O=C(Cc1c[nH]c2ccccc12)N1CCN(C(=O)c2ccccc2)CC1 | 12 mm |
| O=C(CCc1cn(Cc2cn(Cc3ccc(F)cc3)nn2)c2ccccc12)N1CCN(S(=O)(=O)c2ccc(Cl)cc2)CC1 | 13 mm |
| O=C(CCc1cn(Cc2cn(Cc3ccc(F)cc3)nn2)c2ccccc12)N1CCN(S(=O)(=O)c2ccccc2C(F)(F)F)CC1 | 12 mm |
| O=C(CCc1cn(Cc2ccc(F)cc2)c2ccccc12)N1CCN(S(=O)(=O)c2ccccc2)CC1 | 18 mm |
| O=C(CCc1c[nH]c2ccccc12)N1CCN(S(=O)(=O)c2ccccc2)CC1 | 15 mm |
| O=C(O)c1cn(C2CC2)c2cc(N3CCNCC3)c(F)cc2c1=O [CIPROFLOXACIN] | 21 mm |
| Cc1ccc(S(=O)(=O)N2CCN(C(=O)CCc3cn(Cc4cn(Cc5ccc(F)cc5)nn4)c4ccccc34)CC2)cc1 | 15 mm |
| O=C(Cc1c[nH]c2ccccc12)N1CCN(S(=O)(=O)c2ccc(Cl)cc2)CC1 | 12 mm |
| Cc1ccc(S(=O)(=O)N2CCN(C(=O)Cc3c[nH]c4ccccc34)CC2)cc1 | 12 mm |

system: Staphylococcus aureus; assay: Antibacterial activity against Staphylococcus aureus assessed as inhibition zone at 25 ug/ml by diffusion method; assay type: functional; settings: read-out: IZ

| Structure (SMILES) | zone of inhibition at 25 µg/mL |
| --- | --- |
| O=C(Cc1c[nH]c2ccccc12)N1CCN(C(=O)c2ccccc2)CC1 | 10 mm |
| O=C(CCc1cn(Cc2cn(Cc3ccc(F)cc3)nn2)c2ccccc12)N1CCN(S(=O)(=O)c2ccc(Cl)cc2)CC1 | 10 mm |
| O=C(CCc1cn(Cc2cn(Cc3ccc(F)cc3)nn2)c2ccccc12)N1CCN(S(=O)(=O)c2ccccc2C(F)(F)F)CC1 | 10 mm |
| O=C(CCc1cn(Cc2ccc(F)cc2)c2ccccc12)N1CCN(S(=O)(=O)c2ccccc2)CC1 | 15 mm |
| O=C(CCc1c[nH]c2ccccc12)N1CCN(S(=O)(=O)c2ccccc2)CC1 | 12 mm |
| O=C(O)c1cn(C2CC2)c2cc(N3CCNCC3)c(F)cc2c1=O [CIPROFLOXACIN] | 18 mm |
| Cc1ccc(S(=O)(=O)N2CCN(C(=O)CCc3cn(Cc4cn(Cc5ccc(F)cc5)nn4)c4ccccc34)CC2)cc1 | 12 mm |
| O=C(Cc1c[nH]c2ccccc12)N1CCN(S(=O)(=O)c2ccc(Cl)cc2)CC1 | 10 mm |
| Cc1ccc(S(=O)(=O)N2CCN(C(=O)Cc3c[nH]c4ccccc34)CC2)cc1 | 10 mm |

system: Pseudomonas aeruginosa; assay: Antibacterial activity against Pseudomonas aeruginosa assessed as inhibition zone at 75 ug/ml by diffusion method; assay type: functional; settings: read-out: IZ

| Structure (SMILES) | zone of inhibition at 75 µg/mL |
| --- | --- |
| O=C(Cc1c[nH]c2ccccc12)N1CCN(C(=O)c2ccccc2)CC1 | 13 mm |
| O=C(CCc1cn(Cc2cn(Cc3ccc(F)cc3)nn2)c2ccccc12)N1CCN(S(=O)(=O)c2ccc(Cl)cc2)CC1 | 18 mm |
| O=C(CCc1cn(Cc2cn(Cc3ccc(F)cc3)nn2)c2ccccc12)N1CCN(S(=O)(=O)c2ccccc2C(F)(F)F)CC1 | 12 mm |
| O=C(CCc1cn(Cc2ccc(F)cc2)c2ccccc12)N1CCN(S(=O)(=O)c2ccccc2)CC1 | 18 mm |
| O=C(CCc1c[nH]c2ccccc12)N1CCN(S(=O)(=O)c2ccccc2)CC1 | 15 mm |
| O=C(O)c1cn(C2CC2)c2cc(N3CCNCC3)c(F)cc2c1=O [CIPROFLOXACIN] | 21 mm |
| Cc1ccc(S(=O)(=O)N2CCN(C(=O)CCc3cn(Cc4cn(Cc5ccc(F)cc5)nn4)c4ccccc34)CC2)cc1 | 15 mm |
| O=C(Cc1c[nH]c2ccccc12)N1CCN(S(=O)(=O)c2ccc(Cl)cc2)CC1 | 13 mm |
| Cc1ccc(S(=O)(=O)N2CCN(C(=O)Cc3c[nH]c4ccccc34)CC2)cc1 | 15 mm |

system: Pseudomonas aeruginosa; assay: Antibacterial activity against Pseudomonas aeruginosa assessed as inhibition zone at 50 ug/ml by diffusion method; assay type: functional; settings: read-out: IZ

| Structure (SMILES) | zone of inhibition at 50 µg/mL |
| --- | --- |
| O=C(Cc1c[nH]c2ccccc12)N1CCN(C(=O)c2ccccc2)CC1 | 9 mm |
| O=C(CCc1cn(Cc2cn(Cc3ccc(F)cc3)nn2)c2ccccc12)N1CCN(S(=O)(=O)c2ccc(Cl)cc2)CC1 | 15 mm |
| O=C(CCc1cn(Cc2cn(Cc3ccc(F)cc3)nn2)c2ccccc12)N1CCN(S(=O)(=O)c2ccccc2C(F)(F)F)CC1 | 10 mm |
| O=C(CCc1cn(Cc2ccc(F)cc2)c2ccccc12)N1CCN(S(=O)(=O)c2ccccc2)CC1 | 15 mm |
| O=C(CCc1c[nH]c2ccccc12)N1CCN(S(=O)(=O)c2ccccc2)CC1 | 10 mm |
| O=C(O)c1cn(C2CC2)c2cc(N3CCNCC3)c(F)cc2c1=O [CIPROFLOXACIN] | 18 mm |
| Cc1ccc(S(=O)(=O)N2CCN(C(=O)CCc3cn(Cc4cn(Cc5ccc(F)cc5)nn4)c4ccccc34)CC2)cc1 | 13 mm |
| O=C(Cc1c[nH]c2ccccc12)N1CCN(S(=O)(=O)c2ccc(Cl)cc2)CC1 | 10 mm |
| Cc1ccc(S(=O)(=O)N2CCN(C(=O)Cc3c[nH]c4ccccc34)CC2)cc1 | 13 mm |

system: Pseudomonas aeruginosa; assay: Antibacterial activity against Pseudomonas aeruginosa assessed as inhibition zone at 25 ug/ml by diffusion method; assay type: functional; settings: read-out: IZ

| Structure (SMILES) | zone of inhibition at 25 µg/mL |
| --- | --- |
| O=C(CCc1cn(Cc2cn(Cc3ccc(F)cc3)nn2)c2ccccc12)N1CCN(S(=O)(=O)c2ccc(Cl)cc2)CC1 | 10 mm |
| O=C(CCc1cn(Cc2ccc(F)cc2)c2ccccc12)N1CCN(S(=O)(=O)c2ccccc2)CC1 | 10 mm |
| O=C(O)c1cn(C2CC2)c2cc(N3CCNCC3)c(F)cc2c1=O [CIPROFLOXACIN] | 15 mm |
| Cc1ccc(S(=O)(=O)N2CCN(C(=O)CCc3cn(Cc4cn(Cc5ccc(F)cc5)nn4)c4ccccc34)CC2)cc1 | 9 mm |
| Cc1ccc(S(=O)(=O)N2CCN(C(=O)Cc3c[nH]c4ccccc34)CC2)cc1 | 10 mm |

— ChEMBL document CHEMBL5523679, “Discovery of 1,2,3-triazole incorporated indole-piperazines as potent antitubercular agents: Design, synthesis, in vitro biological evaluation, molecular docking and ADME studies” (Bioorg Med Chem, 2024)
